Reference: the supplement of paper PMC13380429
± gives the standard deviation of the averaged measurements.

Tests used:
Conditions in all cases: 72 h
Calu-3 [1] = experiment: drug sensitivity score (DSS) for viability; higher = more toxic; extreme values may be limits of the assay
HepG2 [2] = experiment: as above
Vero E6 [3] = experiment: as above
Caco-2 [4] = experiment: as above
U2OS [5] = experiment: as above
Calu-3 [6] = experiment: cell viability relative to DMSO; higher = less toxic
HepG2 [7] = experiment: as above
Vero E6 [8] = experiment: as above
Caco-2 [9] = experiment: as above
U2OS [10] = experiment: as above
Calu-3 [11] = experiment: relative viability EC50 (midpoint between 100% and the lowest measured viability); higher = less toxic
HepG2 [12] = experiment: as above
Vero E6 [13] = experiment: as above
Caco-2 [14] = experiment: as above
U2OS [15] = experiment: as above

SMILES | drug sensitivity score (Calu-3 [1]) | drug sensitivity score (HepG2 [2]) | drug sensitivity score (Vero E6 [3]) | drug sensitivity score (Caco-2 [4]) | drug sensitivity score (U2OS [5]) | cell viability (Calu-3 [6]; 1 nM) [%] | cell viability (Calu-3 [6]; 10 nM) [%] | cell viability (Calu-3 [6]; 100 nM) [%] | cell viability (Calu-3 [6]; 1000 nM) [%] | cell viability (Calu-3 [6]; 10000 nM) [%] | cell viability (HepG2 [7]; 1 nM) [%] | cell viability (HepG2 [7]; 10 nM) [%] | cell viability (HepG2 [7]; 100 nM) [%] | cell viability (HepG2 [7]; 1000 nM) [%] | cell viability (HepG2 [7]; 10000 nM) [%] | cell viability (Vero E6 [8]; 1 nM) [%] | cell viability (Vero E6 [8]; 10 nM) [%] | cell viability (Vero E6 [8]; 100 nM) [%] | cell viability (Vero E6 [8]; 1000 nM) [%] | cell viability (Vero E6 [8]; 10000 nM) [%] | cell viability (Caco-2 [9]; 1 nM) [%] | cell viability (Caco-2 [9]; 10 nM) [%] | cell viability (Caco-2 [9]; 100 nM) [%] | cell viability (Caco-2 [9]; 1000 nM) [%] | cell viability (Caco-2 [9]; 10000 nM) [%] | cell viability (U2OS [10]; 1 nM) [%] | cell viability (U2OS [10]; 10 nM) [%] | cell viability (U2OS [10]; 100 nM) [%] | cell viability (U2OS [10]; 1000 nM) [%] | cell viability (U2OS [10]; 10000 nM) [%] | relative viability EC50 (Calu-3 [11]) [µM] | relative viability EC50 (HepG2 [12]) [µM] | relative viability EC50 (Vero E6 [13]) [µM] | relative viability EC50 (Caco-2 [14]) [µM] | relative viability EC50 (U2OS [15]) [µM]
OCC(O)CN1CCN(c2ccccc2)CC1 (stereo unspecified) [dropropizine] | 0 | 0.1 ± 0.14 | 0 | 0 | 0 | 106 ± 1.6 | 97.85 ± 0.64 | 104 ± 4.5 | 99.6 ± 1.3 | 97.85 ± 0.21 | 94.8 ± 4.6 | 101 ± 4.9 | 102 ± 1.6 | 99.5 ± 3.2 | 88.9 ± 5.2 | 96.6 ± 7.5 | 95.8 ± 1.5 | 94.2 ± 8.5 | 96.7 ± 6.7 | 103 ± 8.4 | 89.7 ± 5 | 85.2 ± 12 | 97.8 ± 2.9 | 91.9 ± 0.57 | 96.3 ± 9.9 | 99.9 ± 5 | 97.3 ± 4.9 | 100.5 ± 0.49 | 97.7 ± 0.14 | 102.8 ± 0.35 | > 10 | > 10 | > 10 | > 10 | > 10
O=c1cc(N2CCNCC2)oc2c(-c3ccccc3)cccc12 | 0 | 0 | 0 | 0 | 0 | 109 | 98.4 | 108 | 106 | 117 | 105 | 100 | 98.2 | 101 | 102 | 100 | 96.4 | 104 | 93.1 | 103 | 93.3 | 88.9 | 89.2 | 93.9 | 106 | 96.6 | 100 | 96.8 | 102 | 101 | > 10 | > 10 | > 10 | > 10 | > 10
NCC1CC(=O)N(Cc2ccccc2)C1 (stereo unspecified) [nebracetam] | 0 | 0 | 0 | 0 | 0 | 99.7 | 96.3 | 93.1 | 94.4 | 107 | 109 | 108 | 92.8 | 96.6 | 98.5 | 94.5 | 93.6 | 97.8 | 91.4 | 108 | 87 | 91.8 | 84.4 | 97.8 | 99.7 | 97.4 | 104 | 95.7 | 100 | 104 | > 10 | > 10 | > 10 | > 10 | > 10
O=C(CCCCCN1C(=O)c2cccc3cccc(c23)C1=O)NO [scriptaid] | 8 | 8.8 | 9.3 | 8.6 | 9.4 | 101 | 102 | 102 | 73.7 | 23.4 | 108 | 109 | 93 | 78.2 | 2.9 | 107 | 106 | 103 | 75.3 | 0.1 | 107 | 90.8 | 97.6 | 80 | 2.4 | 102 | 98.6 | 96.8 | 72.7 | 3.1 | 1.3 | 1.64 | 1.56 | 1.72 | 1.45
CN1CCC(=C2c3ccccc3C=Cc3ccccc32)CC1 [cyproheptadine] | 0 | 0 | 1.8 | 0 | 0 | 101 | 97.2 | 91.3 | 106 | 101 | 88.7 | 90.1 | 116 | 103 | 86.6 | 98.8 | 99.5 | 97.3 | 86.1 | 79.3 | 106 | 96.4 | 99.7 | 90.3 | 90.3 | 97.6 | 97.4 | 92.1 | 100 | 96.9 | > 10 | > 10 | > 10 | > 10 | > 10
C=CCNC(=O)c1cc([N+](=O)[O-])cc2c(=O)[nH]c(Nc3ccc(Cl)c(Cl)c3)nc12 | 0 | 0 | 0 | 0 | 0 | 104 | 93.2 | 103 | 102 | 94 | 104 | 90.5 | 100 | 91.9 | 95.8 | 92.4 | 94.3 | 92.9 | 97.5 | 97.7 | 100 | 95.5 | 99.1 | 96.5 | 98.4 | 97.7 | 96.2 | 102 | 98 | 92.1 | > 10 | > 10 | > 10 | > 10 | > 10
NC(=O)NCCC[C@H](N)C(=O)O [L-citrulline] | 0 | 0 | 0 | 0 | 0 | 101 | 92.2 | 98.6 | 96.9 | 110 | 100 | 95.2 | 92.7 | 91.4 | 94 | 98.6 | 96 | 97.2 | 97.8 | 102 | 99 | 104 | 92.3 | 101 | 92.4 | 98.7 | 102 | 95.5 | 105 | 95.6 | > 10 | > 10 | > 10 | > 10 | > 10
O=C(O)CCCc1ccc(N(CCCl)CCCl)cc1 [chlorambucil] | 0 | 0.3 | 0 | 0 | 0 | 93 | 102 | 94.5 | 101 | 97.6 | 103 | 100 | 104 | 101 | 83.9 | 102 | 102 | 100 | 98.2 | 97.9 | 94.9 | 90.6 | 98.2 | 91.8 | 90.2 | 104 | 99.7 | 101 | 97.3 | 105 | > 10 | > 10 | > 10 | > 10 | > 10
C#C[C@]1(O)C=C[C@H]2[C@@H]3CCC4=CC(=O)CC[C@@H]4[C@H]3CC[C@@]21CC [gestodene] | 0 | 0 | 0 | 0 | 0 | 95.9 | 101 | 101 | 88.5 | 108 | 103 | 102 | 111 | 105 | 99.7 | 95.9 | 96.8 | 96.3 | 94.3 | 106 | 90.1 | 89.6 | 98.9 | 100 | 98.7 | 96.3 | 99.2 | 94.3 | 96 | 102 | > 10 | > 10 | > 10 | > 10 | > 10
Cc1ccccc1-c1cc(N2CCN(C)CC2)ncc1N(C)C(=O)C(C)(C)c1cc(C(F)(F)F)cc(C(F)(F)F)c1 [netupitant] | 0 | 0 | 0 | 0 | 0 | 94.8 | 101 | 105 | 112 | 102 | 95 | 98.2 | 104 | 97.9 | 95.6 | 106 | 108 | 103 | 104 | 97.5 | 93.2 | 92.6 | 91.5 | 96 | 95.2 | 102 | 99 | 101 | 99.4 | 96.5 | > 10 | > 10 | > 10 | > 10 | > 10
CC(=O)N(OCc1ccccc1)[C@@H]1c2cc(C#N)ccc2OC(C)(C)[C@H]1O | 0 | 0 | 0 | 0 | 0 | 103 | 96.9 | 98 | 103 | 106 | 95.1 | 103 | 96.2 | 109 | 109 | 95.3 | 97.7 | 94.2 | 99.9 | 109 | 97.8 | 100 | 99 | 96.5 | 103 | 97.5 | 96.1 | 105 | 94.5 | 94.8 | > 10 | > 10 | > 10 | > 10 | > 10
CN(C)CCc1ccc(O)cc1 [hordenine] | 0 | 0 | 0 | 0 | 0 | 91.9 | 93.6 | 89.7 | 101 | 101 | 104 | 110 | 103 | 87.1 | 100 | 106 | 103 | 101 | 99.1 | 103 | 96.2 | 102 | 100 | 102 | 95.8 | 94.6 | 96.1 | 92.7 | 102 | 97.8 | > 10 | > 10 | > 10 | > 10 | > 10
Oc1c(Cl)cc(Cl)c(Cl)c1Cc1c(O)c(Cl)cc(Cl)c1Cl [hexachlorophene] | 0 | 5.1 | 0.5 | 5.8 | 1.9 | 107 | 103 | 107 | 99.4 | 94.2 | 98 | 98.3 | 94 | 94.4 | 23.8 | 102 | 102 | 100 | 99.9 | 82 | 95 | 97.1 | 92.3 | 91.6 | 20.9 | 97.8 | 96.8 | 92.9 | 96.1 | 70.9 | > 10 | 2.57 | > 10 | 2.29 | 
O=c1c2ccccc2[se]n1-c1ccccc1 [Ebselen] | 1.7 | 0 | 0 | 0 | 1.1 | 104 | 91.8 | 107 | 83.1 | 87.7 | 113 | 98.2 | 103 | 100 | 106 | 97.6 | 100 | 105 | 92.8 | 93.7 | 102 | 89.2 | 104 | 91.6 | 92.2 | 103 | 95.8 | 105 | 98.9 | 74.5 | > 10 | > 10 | > 10 | > 10 | 
CCc1ccc2c(-c3cccc(Cl)c3)nc(=O)n(CC)c2n1 [YM-976] | 0 | 0.1 | 0 | 0 |  | 109 | 98.7 | 101 | 98.3 | 108 | 95.9 | 104 | 97 | 103 | 86.3 | 96.6 | 97.3 | 92.3 | 90.1 | 91.9 | 104 | 95.6 | 104 | 109 | 97.1 |  |  |  |  |  | > 10 | > 10 | > 10 | > 10 | 
